Reference: patent publication US5149707A, “1-((2-fluorophenyl)(4-fluorophenyl)phenylmethyl)-1H-imidazole useful as antifungal agent” (J. Uriach & Cia, S.A., priority 1988, dated 1992)
≈ marks a conversion by molar mass, not a printed value. Like-named read-outs stand apart in the source and are kept apart here.

How the values were obtained:
Type in all cases: cell-based
[1] = system: T. mentagrophytes (clinica) (3); experiment: In vitro antifungal activity (MIC), agar dilution; conditions: Trichophyton mentagrophytes, read-out: MIC
Protocol: (§1) The antifungal activity of 1-[(2-fluorophenyl)(4-fluorophenyl)phenylmethyl]-1H-imidazole was shown by its ability to inhibit the growth of different species of yeast and filamentous fungi in vitro. The activity was recorded as the MIC value, that is, the minimum amount of product needed to achieve the complete inhibition of the in vitro growth of the test organism. Testing was performed as follows: a solution of the antifungal agent in ethanol was diluted with DST agar (pH 6.5) or Emmon's Sabouraud dextrose agar to obtain concentrations between 10 and 0.01 mcg/ml, or 80 and 0.16 mcg/m, respectively. The inoculum was standarized in order 1×10^5 cfu/ml, and 10 mcl of each organism was seeded into the agar surface. Incubation was then allowed at 30° C. during 3 days (DST) or 2 days (Emmon's) for yeasts and 10 days for filamentous fungi. Following incubation, the zones of inhibition were measured and compared to an inoculated, drug-free control to yield the MIC value.

[2] = system: Aspergillus niger; experiment: In vitro antifungal activity (MIC), agar dilution
Protocol: as §1

[3] = system: C. guilliermondii (clinica); experiment: In vitro antifungal activity (MIC), agar dilution
Protocol: as §1

[4] = system: Aspergillus fumigatus (2); experiment: In vitro antifungal activity (MIC), agar dilution; conditions: read-out: MIC
Protocol: as §1

[5] = system: T. mentagrophytes (clinica) (2); experiment: In vitro antifungal activity (MIC), agar dilution; conditions: Trichophyton mentagrophytes, read-out: MIC
Protocol: as §1

[6] = system: Aspergillus fumigatus (1); experiment: In vitro antifungal activity (MIC), agar dilution; conditions: read-out: MIC
Protocol: as §1

[7] = system: C. albicans ATCC 28516; experiment: In vitro antifungal activity (MIC), agar dilution; conditions: Candida albicans, read-out: MIC
Protocol: as §1

[8] = system: C. albicans ATCC 10231; experiment: In vitro antifungal activity (MIC), agar dilution; conditions: Candida albicans, read-out: MIC
Protocol: as §1

[9] = system: Microsporum audouini ATCC 9079; experiment: In vitro antifungal activity (MIC), agar dilution
Protocol: as §1

[10] = system: C. parapsilosis (clinica); experiment: In vitro antifungal activity (MIC), agar dilution; conditions: Lodderomyces parapsilosis, read-out: MIC
Protocol: as §1

[11] = system: Aspergillus flavus; experiment: In vitro antifungal activity (MIC), agar dilution
Protocol: as §1

[12] = system: S. cerevisiae ATCC 9763; experiment: In vitro antifungal activity (MIC), agar dilution; conditions: Saccharomyces cerevisiae, read-out: MIC
Protocol: as §1

[13] = system: T. mentagrophytes (clinica) (1); experiment: In vitro antifungal activity (MIC), agar dilution; conditions: Trichophyton mentagrophytes, read-out: MIC
Protocol: as §1

[14] = system: T. mentagrophytes ATCC 9972; experiment: In vitro antifungal activity (MIC), agar dilution; conditions: Trichophyton mentagrophytes, read-out: MIC
Protocol: as §1

[15] = system: T. mentagrophytes (clinica) (4); experiment: In vitro antifungal activity (MIC), agar dilution; conditions: Trichophyton mentagrophytes, read-out: MIC
Protocol: as §1

[16] = system: Microsporum canis (clinica); experiment: In vitro antifungal activity (MIC), agar dilution
Protocol: as §1

[17] = system: C. krusei; experiment: MIC distribution, serial dilutions in Sabouraud gentamycin broth, microplates; conditions: # of strains = 5
Protocol: (§2) The antifungal activity of 1-[(2-fluorophenyl)(4-fluorophenyl)phenylmethyl]-1H-imidazole and bifonazole was determined by serial dilutions in Sabouraud gentamycin broth using microplates. The antifungal agent was diluted in 50% ethanol to obtain concentrations between 40 and 0.015 mcg/ml. Inoculum was 10^7 cfu/ml for yeast and 10^6 cfu/ml for dermatophytes. Incubation was allowed at 37° C. during 2 days for yeasts, and at 29° C. during 7 days for dermatophytes. MIC's were determined as in example 18. The MIC distributions obtained in 9 organisms are shown in the next tables.

[18] = system: T. glabrata; experiment: as above; conditions: # of strains = 10 = UR-4056/15 Bifonzaole
Protocol: as §2

[19] = system: C. parapsilosis; experiment: as above; conditions: # of strains 10 = UR-4056/14 = Bifonazole
Protocol: as §2

[20] = system: T. mentagrohytes; experiment: as above; conditions: # of strains = 17
Protocol: as §2

[21] = system: C. albicans; experiment: as above; conditions: # of strains = 50
Protocol: as §2

[22] = system: C. guilliermondii; experiment: as above; conditions: # of strains = 5
Protocol: as §2

[23] = system: T. rubrum; experiment: as above; conditions: # of strains = 6
Protocol: as §2

[24] = system: C. tropicalis; experiment: as above; conditions: # of strains = 30
Protocol: as §2

[25] = system: M. canis; experiment: as above; conditions: # of strains = 13
Protocol: as §2

[26] = Emmon's Sabouraud dextrose agar

Fc1ccc(C(c2ccccc2)(c2ccccc2F)n2ccnc2)cc1 (stereo not drawn) [UR-4056, 1-[(2-fluorophenyl) (4-fluorophenyl)phenylmethyl]-1H-imidazole]
MIC ([1]; DST agar): 0.25 µg/mL (≈ 0.722 µM) | MIC [1, 26]: 0.16 µg/mL (≈ 0.462 µM) | MIC ([2]; DST agar): 0.25 µg/mL (≈ 0.722 µM) | MIC [2, 26]: 2.5 µg/mL (≈ 7.22 µM) | MIC [3, 26]: 5.00 µg/mL (≈ 14.4 µM) | MIC ([3]; Meyerozyma guilliermondii, DST agar, read-out: MIC): 5 µg/mL (≈ 14.4 µM) | MIC ([4]; DST agar): 0.5 µg/mL (≈ 1.44 µM) | MIC [4, 26]: 1.25 µg/mL (≈ 3.61 µM) | MIC ([5]; DST agar): 10 µg/mL (≈ 28.9 µM) | MIC [5, 26]: 40 µg/mL (≈ 115 µM) | MIC ([6]; DST agar): 0.5 µg/mL (≈ 1.44 µM) | MIC [6, 26]: 0.63 µg/mL (≈ 1.82 µM) | MIC ([7]; ATCC28516, DST agar): 0.5 µg/mL (≈ 1.44 µM) | MIC ([7]; ATCC28516, Emmon's Sabouraud dextrose agar): 0.04 µg/mL (≈ 0.115 µM) | MIC ([8]; ATCC10231, DST agar): 1 µg/mL (≈ 2.89 µM) | MIC ([8]; ATCC10231, Emmon's Sabouraud dextrose agar): 0.04 µg/mL (≈ 0.115 µM) | MIC ([9]; ATCC9079, DST agar): 0.05 µg/mL (≈ 0.144 µM) | MIC ([9]; ATCC9079, Emmon's Sabouraud dextrose agar): 0.63 µg/mL (≈ 1.82 µM) | MIC ([10]; DST agar): 0.5 µg/mL (≈ 1.44 µM) | MIC [10, 26]: 0.08 µg/mL (≈ 0.231 µM) | MIC ([11]; DST agar): 1 µg/mL (≈ 2.89 µM) | MIC [11, 26]: 2.5 µg/mL (≈ 7.22 µM) | MIC ([12]; ATCC9763, DST agar): 0.1 µg/mL (≈ 0.289 µM) | MIC ([12]; ATCC9763, Emmon's Sabouraud dextrose agar): 0.31 µg/mL (≈ 0.895 µM) | MIC ([13]; DST agar): 0.1 µg/mL (≈ 0.289 µM) | MIC [13, 26]: 1.25 µg/mL (≈ 3.61 µM) | MIC ([14]; ATCC9972, DST agar): 0.25 µg/mL (≈ 0.722 µM) | MIC ([14]; ATCC9972, Emmon's Sabouraud dextrose agar): 1.25 µg/mL (≈ 3.61 µM) | MIC ([15]; DST agar): 0.1 µg/mL (≈ 0.289 µM) | MIC [15, 26]: 1.25 µg/mL (≈ 3.61 µM) | MIC ([16]; DST agar): 0.025 µg/mL (≈ 0.0722 µM) | MIC [16, 26]: 0.63 µg/mL (≈ 1.82 µM) | MIC Distribution (number of strains) ([17]; MIC 0.3): 1 # of strains | MIC Distribution (number of strains) ([17]; MIC 2.5): 2 # of strains | MIC Distribution (number of strains) ([17]; MIC column 1.2): 1 # of strains | MIC Distribution (number of strains) ([17]; MIC column 40 (first)): 1 # of strains | MIC Distribution (number of strains) ([18]; MIC 0.6): 1 # of strains | MIC Distribution (number of strains) ([18]; MIC 2.5): 1 # of strains | MIC Distribution (number of strains) ([18]; MIC 5.0): 2 # of strains | MIC Distribution (number of strains) ([18]; MIC column 10): 4 # of strains | MIC Distribution (number of strains) ([18]; MIC column 20): 1 # of strains | MIC Distribution (number of strains) ([18]; MIC column 40 (first)): 1 # of strains | MIC Distribution (number of strains) ([19]; MIC 0.038): 2 # of strains | MIC Distribution (number of strains) ([19]; MIC 0.15): 1 # of strains | MIC Distribution (number of strains) ([19]; MIC 0.3): 2 # of strains | MIC Distribution (number of strains) ([19]; MIC 0.6): 2 # of strains | MIC Distribution (number of strains) ([19]; MIC column 1.2): 1 # of strains | MIC Distribution (number of strains) ([19]; MIC column 10): 2 # of strains | MIC Distribution (number of strains) ([20]; MIC 0.15): 1 # of strains | MIC Distribution (number of strains) ([20]; MIC 0.3): 2 # of strains | MIC Distribution (number of strains) ([20]; MIC 0.6): 11 # of strains | MIC Distribution (number of strains) ([20]; MIC column 1.2): 3 # of strains | MIC Distribution (number of strains) ([21]; MIC 0.3): 1 # of strains | MIC Distribution (number of strains) ([21]; MIC 2.5): 11 # of strains | MIC Distribution (number of strains) ([21]; MIC 5.0): 31 # of strains | MIC Distribution (number of strains) ([21]; MIC column 1.2): 2 # of strains | MIC Distribution (number of strains) ([21]; MIC column 10): 5 # of strains | MIC Distribution (number of strains) ([22]; MIC 0.3): 1 # of strains | MIC Distribution (number of strains) ([22]; MIC 0.6): 2 # of strains | MIC Distribution (number of strains) ([22]; MIC column 1.2): 2 # of strains | MIC Distribution (number of strains) ([23]; MIC 0.15): 4 # of strains | MIC Distribution (number of strains) ([23]; MIC 2.5): 1 # of strains | MIC Distribution (number of strains) ([23]; MIC column 1.2): 1 # of strains | MIC Distribution (number of strains) ([24]; MIC 0.6): 1 # of strains | MIC Distribution (number of strains) ([24]; MIC 2.5): 4 # of strains | MIC Distribution (number of strains) ([24]; MIC 5.0): 13 # of strains | MIC Distribution (number of strains) ([24]; MIC column 0.078): 1 # of strains | MIC Distribution (number of strains) ([24]; MIC column 1.2): 3 # of strains | MIC Distribution (number of strains) ([24]; MIC column 10): 8 # of strains | MIC Distribution (number of strains) ([25]; MIC 0.3): 4 # of strains | MIC Distribution (number of strains) ([25]; MIC 2.5): 4 # of strains | MIC Distribution (number of strains) ([25]; MIC column 1.2): 5 # of strains
